According to US20110319379A1, “Substituted Indazole Amides And Their Use As Glucokinase Activators” (priority 2009, published 2011):

Each molecule was assayed against T1, recombinant human glucokinase (Homo sapiens, UniProt P35557) (assay: Assay 2: Evaluating Activator Potency in a Matrix Assay at Multiple Glucose Concentrations). Details: Assay 2 matrix assay; 16 glucose concentrations; intrinsic EC50 = concentration affording a 50% reduction in the enzyme's Km (for glucose); read-out: Glucokinase EC50.
T1 construct: Full-length glucokinase (beta cell isoform) was His-tagged at the N-terminus and purified by a Ni column followed by size exclusion chromatography as described above; His tag; made in house; host or cells: E. coli BL21(DE3), vector pBCGK
T1 sequence (P35557 1-465): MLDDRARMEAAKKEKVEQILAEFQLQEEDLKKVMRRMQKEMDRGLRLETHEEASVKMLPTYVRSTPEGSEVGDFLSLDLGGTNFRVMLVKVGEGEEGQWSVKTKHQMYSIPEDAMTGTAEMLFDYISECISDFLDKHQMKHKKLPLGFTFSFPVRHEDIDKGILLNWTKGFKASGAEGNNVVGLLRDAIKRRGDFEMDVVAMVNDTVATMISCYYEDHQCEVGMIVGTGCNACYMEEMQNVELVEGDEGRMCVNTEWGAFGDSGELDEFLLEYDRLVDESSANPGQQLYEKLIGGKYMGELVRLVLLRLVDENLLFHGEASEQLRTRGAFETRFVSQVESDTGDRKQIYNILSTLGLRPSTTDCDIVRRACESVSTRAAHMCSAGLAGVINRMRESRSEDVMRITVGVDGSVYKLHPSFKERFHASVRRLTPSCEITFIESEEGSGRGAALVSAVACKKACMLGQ
Format: biochemical
Experimental: Representative compounds of this invention were evaluated in biochemical assays (Assay 1 or Assay 2) to characterize their glucokinase activation properties.
The recombinant human glucokinase protein utilized in both assays was prepared and purified as described below.
BL21(DE3) cells (Invitrogen Corporation, Carlsbad, Calif.) containing pBCGK (C or N H is) vector were grown at 37° C. (in 2XYT) until the OD600 was between 0.6-1.0. Expression was induced by addition of isopropylthiogalactoside to a final concentration of 0.1-0.2 mM to the cells which were then incubated overnight at 23° C. The next day, cells were harvested via centrifugation at 5000 rpm for 15 minutes at 4° C. The cell pellet was stored at −80° C. for future purification.
Beta Cell Glucokinase His-Taq Purification Conditions: A Ni-NTA (Quigan, Germantown, Md.) column (15-50 mL) was used for separation. Two buffers were prepared, 1) a lysis/nickel equilibration and wash buffer and 2) a nickel elution buffer. The lysis/equilibration/wash buffer was prepared as such: 25 mM HEPES buffer at pH 7.5, 250 mM NaCl, 20 mM imidazole, and 14 mM β-mercaptoethanol as final concentrations. The elution buffer was prepared as such: 25 mM HEPES at pH 7.5, 250 mM NaCl, 400 mM imidazole, and 14 mM β-mercaptoethanol as final concentrations. The buffers were each filtered with a 0.22 μm filter prior to use. The cell pellet (1 L culture) was resuspended in 300 mL of the lysis/equilibration buffer. The cells were then lysed (3 times) with a Microfluidics Model 110Y microfluidizer (Microfluidics Corporation, Newton, Mass.). The slurry was centrifuged with a Beckman Coulter Model LE-80K ultracentrifuge (Beckman Coulter, Fullerton, Calif.) at 40,000 rpm for 45 minutes at 4° C. The supernatant was transferred to a chilled flask. A volume of 20 μl was saved for gel analysis. A Pharmacia AKTA (GMI, Inc., Ramsey, Minn.) purification system was used for separation. The prime lines were purged with lysis/equilibration buffer. The Ni-NTA column was equilibrated with 200 mL of the lysis/equilibration buffer at a flow rate of 5 mL/minute. The supernantant was loaded over the column at 4 mL/minute and the flow-through was collected in a flask. The unbound proteins were washed with lysis/equilibration buffer at a flow rate of 5 mL/minute until the ultraviolet reaches baseline. The protein was then eluted from the column with the imidazole elution buffer via imidazole gradient 20 mM to 400 mM over 320 mL. The column was then stripped of any additional protein with 80 mL of the elution buffer. The elution fractions were each 8 mL, for a total yield of 50 samples. Fractions were analyzed by sodium dodecyl sulfate polyacrylamide (SDS-PAGE) and the fractions containing protein of interest were pooled and concentrated to 10 mL using ultrafiltration cell with a 10,000 molecular weight cut-off (MWCO) Millipore membrane (Sigma-Aldrich, St. Louis, Mo.) under nitrogen gas (60 psi). Protein was further purified by size exclusion chromatography (SEC) using a […] (320 mL) (Amersham Pharmacia, Uppsala, Sweden). SEC was equilibrated with 450 mL sizing buffer containing 25 mM HEPES pH 7.0, 50 mM NaCl, and 5 mM dithiothreitol. Concentrated protein was then loaded over SEC and elution with 400 mL sizing buffer was performed overnight at 0.5 mL/minute. The elution fractions were 5 mL each. The fractions were analyzed by SDS-PAGE and protein containing fractions were pooled. Concentration was measured using Bradford Assay/BSA Standard. Purified protein was stored in small aliquots at −80° C.
Assay 2: Evaluating Activator Potency in a Matrix Assay at Multiple Glucose Concentrations
Utilizing an adaptation of this method, representative compounds of the current invention were evaluated at 22 different concentrations and 16 different glucose concentrations in a coupled enzyme assay system that detects glucokinase activity via depletion of β-NADH.
With `CC(C)n1cc2c(Oc3cnc(C(=O)N4CCC4)cn3)cc(C(=O)Nc3cnn(C)n3)cc2n1` [Example 1BY, 4-(5-(azetidine-1-carbonyl)pyrazin-2-yloxy)-2-isopropyl-N-(2-methyl-2H-1,2,3-triazol-4-yl)-2H-indazole-6-carboxamide] the EC50 was 17500 nM.
For `CCn1cc2c(Oc3cnc(C(=O)N(C)C)c(F)c3)cc(C(=O)Nc3cnccn3)cc2n1` [Example 1BB, 4-(6-(dimethylcarbamoyl)-5-fluoropyridin-3-yloxy)-2-ethyl-N-(pyrazin-2-yl)-2H-indazole-6-carboxamide], the EC50 was 195 nM.
`CCn1cc2c(Oc3cnc(C(=O)N(C)C)cn3)cc(C(=O)Nc3ccn(C)n3)cc2n1` [Example 1BU, 4-(5-(dimethylcarbamoyl)pyrazin-2-yloxy)-2-ethyl-N-(1-methyl-1H-pyrazol-3-yl)-2H-indazole-6-carboxamide] gave an EC50 of 1050 nM.
In the case of `CCn1cc2c(Oc3ccc(S(N)(=O)=O)cc3)cc(C(=O)Nc3cnc(C)cn3)cc2n1` [Example 1CR, 4-[4-(aminosulfonyl)phenoxy]-2-ethyl-N-(5-methylpyrazin-2-yl)-2H-indazole-6-carboxamide], the EC50 is reported as 586 nM.
`CCn1cc2c(Oc3cnc(NC(C)=O)cn3)cc(C(=O)Nc3ccc(C)cn3)cc2n1` [Example 1CM, 4-(5-acetamidopyrazin-2-yloxy)-2-ethyl-N-(5-methylpyridin-2-yl)-2H-indazole-6-carboxamide] gave an EC50 of 2450 nM.
Work on `Cc1ccc(NC(=O)c2cc(Oc3ccc(S(C)(=O)=O)cc3C(F)(F)F)c3cn(C)nc3c2)nc1` [Example 1AR, 2-methyl-N-(5-methylpyridin-2-yl)-4-[4-(methylsulfonyl)-2-(trifluoromethyl)phenoxy]-2H-indazole-6-carboxamide] yielded an EC50 of 545 nM.
`CCn1cc2c(Oc3ccc(S(N)(=O)=O)cc3)cc(C(=O)Nc3ccc(F)cn3)cc2n1` [Example 1CT, 4-[4-(aminosulfonyl)phenoxy]-2-ethyl-N-(5-fluoropyridin-2-yl)-2H-indazole-6-carboxamide] gave an EC50 of 1820 nM.
`CCn1cc2c(Oc3ccc(S(C)(=O)=O)cc3)cc(C(=O)Nc3ccc(CC(N)=O)cn3)cc2n1` [Example 1CE, N-[5-(2-amino-2-oxoethyl)pyridin-2-yl]-2-ethyl-4[4-(methylsulfonyl)phenoxy]-2H-indazole-6-carboxamide] showed an EC50 of 558 nM.
In the case of `CN(C)S(=O)(=O)c1ccc(Oc2cc(C(=O)Nc3cnn(C)n3)cc3nn(C)cc23)cc1` [Example 1AJ, 4-{4-[(dimethylamino)sulfonyl]phenoxy}-2-methyl-N-(2-methyl-2H-1,2,3-triazol-4-yl)-2H-indazole-6-carboxamide], the EC50 is reported as 703 nM.
`CCn1cc2c(Oc3cnc(C(=O)N4CCC4)cn3)cc(C(=O)Nc3ccn(C)n3)cc2n1` [Example 1BQ, 4-(5-(azetidine-1-carbonyl)pyrazin-2-yloxy)-2-ethyl-N-(1-methyl-1H-pyrazol-3-yl)-2H-indazole-6-carboxamide] showed an EC50 of 699 nM.
With `COc1cnc(NC(=O)c2cc(Oc3cnc(C(=O)N(C)C)c(F)c3)c3cn(C)nc3c2)cn1` [Example 1BE, 4-(6-(dimethylcarbamoyl)-5-fluoropyridin-3-yloxy)-N-(5-methoxypyrazin-2-yl)-2-methyl-2H-indazole-6-carboxamide] the EC50 was 456 nM.
Work on `Cn1ccc(NC(=O)c2cc(Oc3ccc(S(N)(=O)=O)cc3)c3cn(C)nc3c2)n1` [Example 1AU, 4-[4-(aminosulfonyl)phenoxy]-2-methyl-N-(1-methyl-1H-pyrazol-3-yl)-2H-indazole-6-carboxamide] yielded an EC50 of 6220 nM.
`CNS(=O)(=O)c1ccc(Oc2cc(C(=O)Nc3ccn(C)n3)cc3nn(C)cc23)cc1` [Example 1BL, 2-methyl-4-{4-[(methylamino)sulfonyl]phenoxy}-N-(1-methyl-1H-pyrazol-3-yl)-2H-indazole-6-carboxamide] gave an EC50 of 1800 nM.
`CCn1cc2c(Oc3ccc(S(C)(=O)=O)cc3)cc(C(=O)Nc3cnc(OC)cn3)cc2n1` [Example 1AX, 2-ethyl-N-(5-methoxypyrazin-2-yl)-4-[4-(methylsulfonyl)phenoxy]-2H-indazole-6-carboxamide] showed an EC50 of 567 nM.
`Cc1ccc(NC(=O)c2cc(Oc3ccc4c(c3)CCS4(=O)=O)c3cn(C)nc3c2)nc1` [Example 1AV, 4-[(1,1-dioxido-2,3-dihydro-1-benzothien-5-yl)oxy]-2-methyl-N-(5-methylpyridin-2-yl)-2H-indazole-6-carboxamide] gave an EC50 of 817 nM.
`CCn1cc2c(Oc3cnc(N(C)S(C)(=O)=O)cn3)cc(C(=O)Nc3ccc(C)cn3)cc2n1` [Example 1AN, 2-ethyl-4-({5-[methyl(methylsulfonyl)amino]pyrazin-2-yl}oxy)-N-(5-methylpyridin-2-yl)-2H-indazole-6-carboxamide] showed an EC50 of 532 nM.
`CCn1cc2c(Oc3ccc(S(C)(=N)=O)cc3)cc(C(=O)Nc3ccc(C)cn3)cc2n1` (centres unmarked) [Example 1CV, 2-ethyl-N-(5-methylpyridin-2-yl)-4-[4-(S-methylsulfonimidoyl)phenoxy]-2H-indazole-6-carboxamide] showed an EC50 of 715 nM.
`CCn1cc2c(Oc3ccc4c(c3)CCS4(=O)=O)cc(C(=O)Nc3ccc(C)cn3)cc2n1` [Example 1AW, 4-[(1,1-dioxido-2,3-dihydro-1-benzothien-5-yl)oxy]-2-ethyl-N-(5-methylpyridin-2-yl)-2H-indazole-6-carboxamide] gave an EC50 of 986 nM.
`Cc1ccc(NC(=O)c2cc(Oc3ccc(S(C)(=O)=O)nc3)c3cn(C)nc3c2)nc1` [Example 1AP, 2-methyl-N-(5-methylpyridin-2-yl)-4-{[6-(methylsulfonyl)pyridin-3-yl]oxy}-2H-indazole-6-carboxamide] showed an EC50 of 1430 nM.
For `CNS(=O)(=O)c1ccc(Oc2cc(C(=O)Nc3cnc(C)cn3)cc3nn(C)cc23)cc1` [Example 1AK, 4-{4-[(methylamino)sulfonyl]phenoxy}-2-methyl-N-(5-methylpyrazin-2-yl)-2H-indazole-6-carboxamide], the EC50 was 878 nM.
`CCOc1cnc(NC(=O)c2cc(Oc3ccc(S(C)(=O)=O)cc3)c3cn(CC)nc3c2)cn1` [Example 1BG, N-(5-ethoxypyrazin-2-yl)-2-ethyl-4-[4-(methylsulfonyl)phenoxy]-2H-indazole-6-carboxamide] gave an EC50 of 203 nM.
With `CCOc1cnc(NC(=O)c2cc(Oc3ccc(S(N)(=O)=O)cc3)c3cn(CC)nc3c2)cn1` [Example 1BI, 4-[4-(aminosulfonyl)phenoxy]-N-(5-ethoxypyrazin-2-yl)-2-ethyl-2H-indazole-6-carboxamide] the EC50 was 49900 nM.

Same assay, conditions: Glucokinase EC50, Assay 2 matrix assay; 16 glucose concentrations; intrinsic EC50 = concentration affording a 50% reduction in the enzyme's Km (for glucose)
`Cc1cnc(NC(=O)c2cc(Oc3ccc(S(N)(=O)=O)cc3)c3cn(C)nc3c2)cn1` [Example 1AS, 4-[4-(aminosulfonyl)phenoxy]-2-methyl-N-(5-methylpyrazin-2-yl)-2H-indazole-6-carboxamide] gave an EC50 of 2280 nM.
